Results as given in ChEMBL document CHEMBL6121052, “Design of ROS-Triggered Sesquiterpene Lactone SC Prodrugs as TrxR1 Covalent Inhibitors for the Treatment of Non-Small Cell Lung Cancer” (J Med Chem, 2025).
The source made the active and inactive calls. No cut-off for these calls is given here.

Assays:
[1] = target: T1, Thioredoxin reductase 1, cytoplasmic (Homo sapiens, UniProt Q16881); assay: Binding affinity to TrxR1 (unknown origin) assessed as dissociation constant by SPR analysis
T1 sequence (Q16881 whole entry): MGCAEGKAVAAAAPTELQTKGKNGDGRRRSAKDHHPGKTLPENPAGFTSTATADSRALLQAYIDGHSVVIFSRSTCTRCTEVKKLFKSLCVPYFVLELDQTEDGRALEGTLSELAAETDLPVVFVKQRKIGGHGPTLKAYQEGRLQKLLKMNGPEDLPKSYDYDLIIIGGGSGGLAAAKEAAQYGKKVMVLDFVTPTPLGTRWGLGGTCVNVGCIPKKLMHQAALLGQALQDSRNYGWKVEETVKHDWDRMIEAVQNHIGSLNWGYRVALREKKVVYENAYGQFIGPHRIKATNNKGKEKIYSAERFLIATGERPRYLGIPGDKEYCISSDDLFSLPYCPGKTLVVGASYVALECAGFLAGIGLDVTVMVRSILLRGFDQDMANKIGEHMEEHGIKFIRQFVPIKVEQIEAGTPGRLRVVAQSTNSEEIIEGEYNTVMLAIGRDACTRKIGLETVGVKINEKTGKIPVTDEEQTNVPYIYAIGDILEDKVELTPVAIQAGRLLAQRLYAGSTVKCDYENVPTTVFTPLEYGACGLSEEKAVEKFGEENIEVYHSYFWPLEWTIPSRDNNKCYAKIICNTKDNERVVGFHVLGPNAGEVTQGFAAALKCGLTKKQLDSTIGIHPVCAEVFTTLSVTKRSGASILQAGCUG

NCI-H460 [2] = assay: Cytotoxicity against human NCI-H460 cells assessed as cell viability incubated for 48 hrs by MTT assay; type: functional, cell-based; conditions: NCI-H460, 48 h
A549 [3] = assay: Cytotoxicity against human A549 cells assessed as cell viability incubated for 48 hrs by MTT assay; type: functional, cell-based; conditions: A549, 48 h
[4] = Cytotoxicity against human BEAS-2B cells assessed as cell viability incubated for 48 hrs by MTT assay; type: toxicity, cell-based
NCI-H1299 = assay: Cytotoxicity against human NCI-H1299 cells assessed as cell viability incubated for 48 hrs by MTT assay; type: functional, cell-based; conditions: NCI-H1299, 48 h
NCI-H460 [5] = assay: Induction of ROS generation in human NCI-H460 cells by DCFH-DA probe based flow cytometry analysis; type: functional, cell-based
A549 [6] = assay: Induction of ROS generation in human A549 cells by DCFH-DA probe based flow cytometry analysis; type: functional, cell-based
[7] = target: T2, Thioredoxin reductase 1, cytoplasmic (Homo sapiens) (UniProt Q16881); assay: Binding affinity to TrxR1 (unknown origin) at Cys475 residue
T2 sequence (whole entry): T1 sequence (Q16881 whole entry)

[8] = target: T2, Thioredoxin reductase 1, cytoplasmic (Homo sapiens); assay: Inhibition of TrxR1 (unknown origin) using DTNB as substrate preincubated for 1.5 hrs by microplate reader analysis
[9] = target: T2, Thioredoxin reductase 1, cytoplasmic (Homo sapiens); assay: Binding affinity to TrxR1 in human A549 cells assessed as thermal stabilization by measuring reduction in thermal denaturation at 200 uM incubated for 90 mins by CETSA analysis; type: cell-based
[10] = target: T2, Thioredoxin reductase 1, cytoplasmic (Homo sapiens); assay: Binding affinity to TrxR1 (unknown origin) at Sec498 residue by pull-down analysis

C=C1C(=O)O[C@H]2CC3=C[C@H](C/C(C)=C/[C@@H](O)[C@H]12)OC3=O
Kd [1]: 42.7 µM

C/C1=C\[C@@H](OC(=O)C2CC2)[C@H]2[C@H](CC3=C[C@H](C1)OC3=O)OC(=O)[C@@H]2CSc1ccc(C(F)(F)F)cc1
IC50 (NCI-H460 [2]): > 25 µM | IC50 (A549 [3]): 3.86 µM | IC50 at 48 h [4]: > 25 µM

C/C1=C\[C@@H](OC(=O)OC2CC2)[C@H]2[C@H](CC3=C[C@H](C1)OC3=O)OC(=O)[C@@H]2CSc1ccc(F)cc1
IC50 (NCI-H1299): 3.04 µM | IC50 (A549 [3]): 3.91 µM

C/C1=C\[C@@H](OC(=O)C2CC2)[C@H]2[C@H](CC3=C[C@H](C1)OC3=O)OC(=O)[C@@H]2CSC(=S)N(C)C
IC50 (NCI-H460 [2]): 7.75 µM | IC50 (NCI-H1299): 2.18 µM | IC50 (A549 [3]): 0.57 µM

C/C1=C\[C@@H](OC(=O)C2CC2)[C@H]2[C@H](CC3=C[C@H](C1)OC3=O)OC(=O)[C@@H]2CSc1ccc(F)cc1
IC50 (NCI-H460 [2]): > 25 µM | IC50 (A549 [3]): 4.41 µM | Activity (NCI-H460 [5]): Active | Activity (A549 [6]): Active | IC50 at 48 h [4]: > 25 µM

C=C1C(=O)O[C@H]2CC3=C[C@H](C/C(C)=C/[C@@H](OC(=O)NCCC)[C@H]12)OC3=O
Activity [7]: Active | Kd [1]: 7.89 µM | inhibition [8]: Active | Activity [9]: Active | Activity [10]: Active

C/C1=C\[C@@H](OC(=O)OCc2ccc(F)cc2)[C@H]2[C@H](CC3=C[C@H](C1)OC3=O)OC(=O)[C@@H]2CSC(=S)N(C)C
IC50 (NCI-H1299): 2.93 µM | IC50 (A549 [3]): 0.47 µM

C/C1=C\[C@@H](OC(=O)OCc2cccnc2)[C@H]2[C@H](CC3=C[C@H](C1)OC3=O)OC(=O)[C@@H]2CSc1ccc(F)cc1
IC50 (NCI-H1299): 11.5 µM | IC50 (A549 [3]): 1.56 µM

C/C1=C\[C@@H](OC(=O)NCc2ccc(F)cc2)[C@H]2[C@H](CC3=C[C@H](C1)OC3=O)OC(=O)[C@@H]2CSc1ccc(F)cc1
IC50 (NCI-H1299): 5.37 µM | IC50 (A549 [3]): 5.05 µM

C/C1=C\[C@@H](OC(=O)SCC(C)C)[C@H]2[C@H](CC3=C[C@H](C1)OC3=O)OC(=O)[C@@H]2CSc1ccc(F)cc1
IC50 (NCI-H1299): 5.37 µM | IC50 (A549 [3]): 2.57 µM

CCCCCSC(=O)O[C@@H]1/C=C(\C)C[C@H]2C=C(C[C@@H]3OC(=O)[C@H](CSC(=S)N(C)C)[C@H]31)C(=O)O2
IC50 (NCI-H1299): 2.64 µM | IC50 (A549 [3]): 1.06 µM

C/C1=C\[C@@H](OC(=O)C2CC2)[C@H]2[C@H](CC3=C[C@H](C1)OC3=O)OC(=O)[C@@H]2CSc1ccc(Br)cc1
IC50 (NCI-H460 [2]): > 25 µM | IC50 (A549 [3]): 4.6 µM | IC50 at 48 h [4]: > 25 µM
